This is an account of results in patent US7825110B2, “Substituted spiroheterocycles” (Janssen Pharmaceutica NV, priority 2006, dated 2010).

As a reminder, the IC50 is the point on the concentration scale where inhibition reaches its midpoint. The inhibition is the share of the control response that was lost under treatment.

For assay [1], the target named is T1, human V1a receptor (Homo sapiens, UniProt P37288). The assay is described as follows: In-vitro binding assay, 3H-arginine-8-vasopressin, V1a. The conditions noted are these: for IC50: membrane containing human V1a receptor, displacement of H3 vasopressin; for inhibition at 0.2 µM: 0.2 μM test compound, read-out: V1a (binding), Percent inhibition at 0.2 μM. As for the experimental part: (§1) Assay buffer is 50 mM Tris-Cl, 5 mM MgCl2, 0.1% BSA (pH 7.5) containing 5 μg/ml of aprotinin, leupeptin, pepstatin, 50 μg/ml bacitracin, and 1 mM Pefabloc (4-(2-Aminoethyl)-benzenesulfonyl fluoride, hydrochloride manufactured by Roche Diagnostics Corporation, Indianapolis, Ind. and distributed by Boehringer Mannheim). H3 vasopressin is ^3H-arginine-8-vasopressin (NEN Life Sciences, Boston, Mass.; 68.5 Ci/mmol, final concentration in assay is 0.65-0.75 nM). Into wells of 96-well round bottom polypropylene plates are added buffer, test compound, membrane (containing human V1a or V2 receptor), and H3 vasopressin. The reaction plates are allowed to sit at room temperature for one hour. The samples are filtered through Unifilter GF/C plates (PerkinElmer Life Sciences, Boston, Mass.) presoaked in […]. The plates are washed 5 times with cold physiological saline containing 0.05% Tween 20. After drying, the bottom of the filter plates
(§2) [formula] are sealed and 0.025 ml of Microscint-20 (Packard Instrument Co, Meriden, Conn.) is added to each filter. The top of the plate is sealed, and the plate is counted. Non-specific binding is determined by the addition of 1.25 μM arginine-8-vasopressin in those wells. % Inh. is calculated as follows: […]

Assay [2] addresses T2, human V2 receptor (Homo sapiens, UniProt P30518). The assay is described as follows: In-vitro binding assay, 3H-arginine-8-vasopressin, V2. The conditions noted are these: for inhibition at 0.2 µM: 0.2 μM test compound, read-out: V2 (binding), Percent inhibition at 0.2 μM; for IC50: membrane containing human V2 receptor, displacement of H3 vasopressin. As for the experimental part:
as §1, §2

For assay [3], the target named is T1, human V1a receptor. Kind of assay: V1a vasopressin receptor functional activity (intracellular calcium mobilization, FLIPR, V1a-HEK cells). The conditions noted are these: antagonism of vasopressin-induced calcium mobilization in V1a-HEK cells. In kind it is cell-based. How it is done:
The V1a receptor is a G-protein coupled receptor, which upon activation triggers an increase in intracellular calcium mobilization. To evaluate compounds for their functional V1a receptor activity, HEK-293 cells were transfected with the human V1a receptor (V1a-HEK cells). HEK-293 cells were grown in DMEM (Dulbecco's modified Eagle Media) supplemented with 10% FBS and glutamine. HEK-cells were passed biweekly by trypsinization and seeded into 96 well plates at 33,000 cells per well. HEK-293 cells were transfected with human V1a receptor DNA using DMRIE-C reagent from Life Technologies (Carlsbad, Calif.). Stable lines were generated by selecting cells grown in culture media containing geneticin. After growing in Packard Clear-View black 96 well plates for 4-6 days, V1a-HEK cells were loaded with the calcium-sensitive fluorescence dye, FLUO-3 AM. Changes in intracellular calcium mobilization were measured by quantitating intracellular fluorescence using FLIPR (Fluorometric Imaging Plate Reader; Molecular Devices, Sunnyvale, Calif.). Test compounds were first added to the cells and the resulting changes in fluorescence measured to detect receptor agonistic activity. Five minutes later the cells were challenged with vasopressin to test compounds for their antagonistic activity. Receptor antagonists inhibit the ability of vasopressin to stimulate increases in intracellular fluorescence. IC50's were calculated.

The target of assay [4] is T2, human V2 receptor. The assay is described as follows: V2 vasopressin receptor functional activity (cAMP accumulation, V2-HEK cells). More on the design: expressed in transfected cells; host or cells: HEK-293. In kind it is cell-based. The conditions noted are these: block of vasopressin-stimulated cAMP accumulation in V2-HEK cells. How it is done:
The V2 receptor is also a G-protein coupled receptor which when activated induces an increase in cAMP turnover. Antagonism against the V2 receptor is determined by measuring cAMP accumulation in transfected HEK-293 cells expressing the human V-2 receptor (V2-HEK cells). Compounds are tested for their ability to block the stimulatory effects of vasopressin on cAMP accumulation. The cell content of cAMP is measured by radioimmunoassay using NEN flashplates.

T1 sequence (P37288 whole entry): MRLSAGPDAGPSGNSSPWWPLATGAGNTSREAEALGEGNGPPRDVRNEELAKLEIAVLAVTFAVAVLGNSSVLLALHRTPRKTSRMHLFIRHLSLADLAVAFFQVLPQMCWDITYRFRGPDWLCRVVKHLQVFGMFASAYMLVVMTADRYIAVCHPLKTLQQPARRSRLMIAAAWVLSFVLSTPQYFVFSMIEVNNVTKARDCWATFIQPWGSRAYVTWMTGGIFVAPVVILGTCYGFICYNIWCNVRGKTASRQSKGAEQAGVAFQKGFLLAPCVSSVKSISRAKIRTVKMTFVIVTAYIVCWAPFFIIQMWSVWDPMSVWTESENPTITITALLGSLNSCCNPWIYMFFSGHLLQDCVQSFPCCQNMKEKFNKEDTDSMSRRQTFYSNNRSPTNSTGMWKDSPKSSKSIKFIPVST
T2 sequence (P30518 whole entry): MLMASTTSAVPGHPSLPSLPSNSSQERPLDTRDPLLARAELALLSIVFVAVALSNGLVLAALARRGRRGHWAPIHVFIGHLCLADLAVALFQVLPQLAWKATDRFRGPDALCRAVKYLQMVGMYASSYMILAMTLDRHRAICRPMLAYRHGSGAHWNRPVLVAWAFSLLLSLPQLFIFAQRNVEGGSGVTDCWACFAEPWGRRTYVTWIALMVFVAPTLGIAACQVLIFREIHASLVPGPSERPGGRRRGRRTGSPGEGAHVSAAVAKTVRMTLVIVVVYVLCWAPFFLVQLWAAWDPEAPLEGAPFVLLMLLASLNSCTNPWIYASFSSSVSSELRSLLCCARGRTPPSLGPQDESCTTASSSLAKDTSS

As to `CN1CCCC2(CCN(C(=O)c3ccc(NC(=O)c4cc(F)ccc4Cl)cc3)c3ccccc3C2)C1` (centres unmarked) [Compound 8, Benzamide, 2-chloro-N-[4-{(2,3-dihydro-1′-methyl-spiro[4H-1-benzazepine-4,3-piperidin}-1(5H)-yl)carbonyl}phenyl]-5-fluoro], the figures for the IC50 at human V1a receptor [1], at human V1a receptor [3] and against human V2 receptor [4] were 12 nM, 0.01 µM and 0.46 µM, respectively. For the same molecule, at human V2 receptor [2], the inhibition at 0.2 µM was 52%.
As to `CN1CCCC2(CCN(C(=O)c3ccc(NC(=O)c4ccccc4-c4ccccc4)cc3)c3ccccc3C2)C1` (centres unmarked) [Compound 10, [1,1′-Biphenyl]-2-carboxamide, N-[4-[(2,3-dihydro-1′-methyl-spiro{4H-1-benzazepine-4,3′-piperidin}-1(5H)-yl)carbonyl]phenyl}-], the IC50 at human V1a receptor [1] amounted to 15 nM; at human V2 receptor [2] it was 29 nM; on human V1a receptor [3], 0.08 µM; against human V2 receptor [4], 0.064 µM.
In the case of `O=C(Nc1ccc(C(=O)N2CCC3(CCN(C4CCCC4)C3)Cc3ccccc32)cc1)c1ccccc1-c1ccccc1` (centres unmarked) [Compound 18], the inhibition at 0.2 µM came to 66% at human V1a receptor [1] and 70% on human V2 receptor [2].
As to `COC(=O)CN1CCC2(CCN(C(=O)c3ccc(NC(=O)c4ccccc4-c4ccccc4)cc3)c3ccccc3C2)C1` (centres unmarked) [Compound 22, [1,1′-Biphenyl]-2-carboxamide, N-[4-[(2,3-dihydro-1′-acetic acid-spiro{4H-1-benzazepine-4,3′-pyrrolidin}-1(5H)-yl)carbonyl]phenyl}-, methyl ester], at human V1a receptor [1], the inhibition at 0.2 µM stood at 66%. For the same molecule, the IC50 on human V2 receptor [2] came out at 110 nM; at human V1a receptor [3], 0.4 µM; at human V2 receptor [4], 0.049 µM.
In the case of `CCOC(=O)CN1CCC2(CCN(C(=O)c3ccc(NC(=O)c4ccccc4-c4ccccc4)cc3)c3ccccc3C2)C1` (centres unmarked) [Compound 23, [1,1′-Biphenyl]-2-carboxamide, N-[4-[(2,3-dihydro-1′-acetic acid-spiro{4H-1-benzazepine-4,3′-pyrrolidin}-1(5H)-yl)carbonyl]phenyl}-, ethyl ester], the inhibition at 0.2 µM worked out at 75% on human V1a receptor [1] and 58% on human V2 receptor [2]. Also, the IC50 was 0.78 µM on human V1a receptor [3] and 0.673 µM against human V2 receptor [4].
Consider `CCOC(=O)CC(=O)N1CCC2(CCN(C(=O)c3ccc(NC(=O)c4ccccc4-c4ccccc4)cc3)c3ccccc3C2)C1` (centres unmarked) [Compound 25, [1,1′-Biphenyl]-2-carboxamide, N-[4-[(2,3-dihydro-1′-pyruvic acid-spiro{4H-1-benzazepine-4,3′-pyrrolidin}-1(5H)-yl)carbonyl]phenyl}-, ethyl ester], for which the inhibition at 0.2 µM on human V1a receptor [1] amounted to 35%; on human V2 receptor [2] it was 77%. Also, 0.306 µM corresponded to half-maximal inhibition against human V2 receptor [4] (IC50).
Taken in the same sequence, the figures for `O=C(O)CC(=O)N1CCC2(CCN(C(=O)c3ccc(NC(=O)c4ccccc4-c4ccccc4)cc3)c3ccccc3C2)C1` (centres unmarked) [Compound 26] were 23%, 83% and 0.272 µM.
As for `CC(=O)N1CCC2(CCN(C(=O)c3ccc(NC(=O)c4ccccc4-c4ccccc4)cc3)c3ccccc3C2)C1` (centres unmarked) [Compound 27, [1,1′-Biphenyl]-2-carboxamide, N-[4-[(2,3-dihydro-1′-acetyl-spiro{4H-1-benzazepine-4,3′-pyrrolidin}-1(5H)-yl)carbonyl]phenyl}-], the figures for the inhibition at 0.2 µM on human V1a receptor [1] and at human V2 receptor [2] were 61% and 78%, respectively. Also, the IC50 on human V1a receptor [3] was determined as 0.21 µM; against human V2 receptor [4], 0.182 µM.
`CN(C)CC(=O)N1CCC2(CCN(C(=O)c3ccc(NC(=O)c4ccccc4-c4ccccc4)cc3)c3ccccc3C2)C1` (centres unmarked) [Compound 28, [1,1′-Biphenyl]-2-carboxamide, N-[4-[(2,3-dihydro-(1′-(2-(dimethylamino)acetyl))spiro{4H-1-benzazepine-4,3′-pyrrolidin}-1(5H)-yl)carbonyl]phenyl]-;]: at human V1a receptor [1], the IC50 worked out at 260 nM.
